Measured values reported in ChEMBL document CHEMBL3351983, “Synthesis and biological evaluation of substituted 3-anilino-quinolin-2(1H)-ones as PDK1 inhibitors” (Bioorg Med Chem, 2014).

Biological target: T1, 3-phosphoinositide-dependent protein kinase 1 (Homo sapiens) (UniProt O15530)
T1 sequence (whole entry): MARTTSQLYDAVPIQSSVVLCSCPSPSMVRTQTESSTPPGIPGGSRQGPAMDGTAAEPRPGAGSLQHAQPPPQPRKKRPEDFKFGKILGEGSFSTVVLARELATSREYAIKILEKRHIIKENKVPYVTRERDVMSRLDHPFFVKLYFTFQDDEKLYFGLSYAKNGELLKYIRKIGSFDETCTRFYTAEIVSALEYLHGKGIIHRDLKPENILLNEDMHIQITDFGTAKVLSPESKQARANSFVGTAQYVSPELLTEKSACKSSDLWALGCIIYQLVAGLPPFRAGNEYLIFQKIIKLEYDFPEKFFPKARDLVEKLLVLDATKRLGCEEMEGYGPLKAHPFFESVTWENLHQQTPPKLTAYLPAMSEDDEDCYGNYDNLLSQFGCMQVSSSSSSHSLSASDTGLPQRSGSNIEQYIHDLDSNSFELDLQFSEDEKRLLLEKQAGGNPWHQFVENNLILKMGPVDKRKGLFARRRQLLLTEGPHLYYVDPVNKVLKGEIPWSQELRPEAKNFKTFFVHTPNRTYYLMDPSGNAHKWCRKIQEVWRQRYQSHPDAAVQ
Experiment: Inhibition of PDK1 (unknown origin) at 10 uM using PDKtide substrate and [gamma-32P]ATP by scintillation counting method

| SMILES | inhibition [%] |
| --- | --- |
| CC(=O)Nc1cccc(Nc2cc3cc(NC(N)=O)ccc3[nH]c2=O)c1 | 20 |
| O=C(Cc1ccc2[nH]c(=O)c(Nc3ccccc3)cc2c1)NCCN1CCCCC1 | 36 |
| NC(=O)Nc1ccc2[nH]c(=O)c(Nc3cc(CC(=O)NCCN4CCCCC4)cc(NC(=O)N4CCCC4)c3)cc2c1 | 40 |

More lines, now with the values ahead:

| inhibition [%] | SMILES |
| --- | --- |
| 40 | NC(=O)Nc1ccc2[nH]c(=O)c(Nc3cccc(NC(=O)N4CCCC4)c3)cc2c1 |
| 30 | N#Cc1cccc(Nc2cc3cc(NC(=O)N4CCCC4)ccc3[nH]c2=O)c1 |
| 23 | CCOc1cccc(Nc2cc3cc(NC(=O)N4CCCC4)ccc3[nH]c2=O)c1 |
| 14 | O=C(Nc1ccc2[nH]c(=O)c(Nc3cccc(-c4nnn[nH]4)c3)cc2c1)N1CCCC1 |
| 29 | COc1cccc(-c2cccc(Nc3cc4cc(NC(=O)N5CCCC5)ccc4[nH]c3=O)c2)c1 |

Biological target: T2, 3-phosphoinositide-dependent protein kinase 1 (Homo sapiens, UniProt O15530)
T2 sequence (O15530 whole entry): T1 sequence (whole entry)
Experiment: Inhibition of PDK1 (unknown origin) using PDKtide substrate and [gamma-32P]ATP by scintillation counting method

| SMILES | IC50 [nM] |
| --- | --- |
| CN[C@@H]1CCc2ccccc21 | 200 |
